Experimental data as given in patent US8475772B2, “Peptide-based oral care surface reagents for personal care” (E I du Pont de Nemours and Company, priority 2003, dated 2013).
“And” between values parts separate entries of the source, which are not always exact repeats. Identical values can stand only once. Where no end group is shown, it is not given here.

Legend:
[1] = Phage ELISA on hair surfaces; type: binding, human; conditions: for Hair A450: phage clone on hair, 37° C. 15 min, anti-M13 HRP, mean of at least three replicates
Method: (§1) Enzyme-linked immunosorbent assay (ELISA) was used to evaluate the hair-binding specificity of selected phage-peptide clones. Phage-peptide clones identified in Examples 1 and 2 along with a randomly chosen control G-F9, KHGPDLLRSAPR (given as SEQ ID NO:63) were amplified. More than 10^14 pfu phages were added to pre-blocked hair surfaces.
(§2) A unique hair or pig skin-bottom 96-well apparatus was created by applying one layer of Parafilm® under the top 96-well block of a Minifold I Dot-Blot System (Schleicher & Schuell, Inc., Keene, N.H.), adding hair or a layer of hairless pig skin on top of the Parafilm® cover, and then tightening the apparatus. For each clone to be tested, the hair-covered well was incubated for 1 h at room temperature with 200 μL of blocking buffer, consisting of 2% non-fat dry milk (Schleicher & Schuell, Inc.) in TBS. A second Minifold system with pig skin at the bottom of the wells was treated with blocking buffer simultaneously to serve as a control. The blocking buffer was removed by inverting the systems and blotting them dry with paper towels. The systems were rinsed 6 times with wash buffer consisting of TBST-0.05%. The wells were filled with 200 μL of TBST-0.5% containing 1 mg/mL BSA and then 10 μL (over 10^12 copies) of purified phage stock was added to each well. The samples were incubated at 37° C. for 15 min with slow shaking. The non-binding phage was removed by washing the wells 10 to 20 times with TBST-0.5%. Then, 100 μL of horseradish peroxidase/anti-M13 antibody conjugate (Amersham USA, Piscataway, N.J.), diluted 1:500 in the blocking buffer, was added to each well and incubated for 1 h at room temperature. The conjugate solution was removed and the wells were washed 6 times with TBST-0.05%. TMB substrate (200 μL), obtained from Pierce Biotechnology (Rockford, Ill.) was added to each well and the color was allowed to develop for between 5 to 30 min, typically for 10 min, at room temperature. Then, stop solution (200 μL of 2 M H2SO4) was added to each well and the solution was transferred to a 96-well plate and the A450 was measured using a microplate spectrophotometer (Molecular Devices, Sunnyvale, Calif.). The resulting absorbance values, reported as the mean of at least three replicates, and the standard error of the mean (SEM) are given in Table 10.

[2] = Phage ELISA on pig skin surfaces (specificity control); type: binding; conditions: for Pig Skin A450: phage clone on pig skin, 37° C. 15 min, anti-M13 HRP, mean of at least three replicates
Method: as §1, §2

[3] = Interfiber friction test, low load, against another single hair fiber; set-up: species or system human; conditions: mean of fibers; normal force 8.5 mg
Method: (§3) IL) in distilled water. The aqueous solution was mixed at 7000 rpm for 4 min using a Silverson […] High Shear Laboratory Mixer (Silverson Machines, Inc., East Longmeadow, Mass.) with a general purpose disintegrating head and a 0.95 cm mini-micro tubular frame. A 0.5% solution of Dow Corning® 929 Cationic Emulsion (Dow Corning Corp., Midland, Mich.), a commercial conditioning agent, in distilled water was prepared using identical mixing conditions. European dark brown hair swatches (International Hair Importers and Products) were cleaned before testing by immersing in isopropanol for 30 min, then washing 10 times with distilled water. Single hair fibers from these swatches were sent to Textile Research Institute (TRI), Princeton, N.J., for friction testing. […] Frictional force measurements of treated hair fibers were measured by the Interfiber friction test using a single-fiber friction apparatus, as described by […] et al. (J. Appl. Polymer Sci., 85:394-414 (2002)). Hair fibers were evaluated at high normal forces (high load) (0.74 g) against a chromed steel wire, crosshead speed of 1 mm/min, using an Instron Tensile Testing machine. Low normal forces (low load) (8.5 mg) were measured against another single hair fiber using the TRI/ScanTM Surface Force Analyzer (Textile Research Institute). […]

[4] = Fiber friction test, high load, against chromed steel wire; set-up: species or system human; conditions: normal force 0.74 g
Method: as §3

[5] = Titer-based phage binding assay on normal hair; set-up: species or system human; conditions: output pfu retained by 10 mg normal hair; input 10^14 pfu of phage clone; acid-eluted phage
Method: Phage clones displaying specific peptides were used for comparing the binding characteristics of different peptide sequences. A titer-based assay was used to quantify the phage binding. This assay measures the output pfu retained by 10 mg of hair surfaces, having a signal to noise ratio of 10^3 to 10^4. The input for all the phage clones was 10^14 pfu. It should be emphasized that this assay measures the peptide-expressing phage particle, rather than peptide binding.
Normal hairs were cut into 0.5 cm lengths and 10 mg of the cut hair was placed in each well of a 96-well filter plate (Qiagen). Then, the wells were filled with blocking buffer containing 1 mg/mL BSA in TBST-0.5% and incubated for 1 h at 4° C. The hairs were washed 5 times with TBST-0.5%. The wells were then filled with 1 mL of TBST-0.5% containing 1 mg/mL BSA and then purified phage clones (10^14 pfu) were added to each well. The hair samples were incubated for 15 min at room temperature and then washed 10 times with TBST-0.5%. The hairs were transferred to a clean well and 1.0 mL of a non-specific elution buffer, consisting of 1 mg/mL BSA in 0.2 M Glycine-HCl at pH 2.2, was added to each well. The samples were incubated for 10 min and then 160 μL of neutralization buffer (1 M Tris-HCl, pH 9.2) was added to each well. The eluted phages from each well were transferred to a new tube for titering and sequencing analysis.
To titer the bound phages, the eluted phage was diluted with SM buffer to prepare 10-fold serial dilutions of 10^1 to 10^8. A 10 μL aliquot of each dilution was incubated with 200 μL of mid-log phase E. coli ER2738 (New England BioLabs), and grown in LB medium for 20 min and then mixed with 3 mL of agarose top (LB medium with 5 mM MgCl2, and 0.7% agarose) at 45° C. This mixture was spread onto a LB medium/IPTG/Xgal plate (LB medium with 15 g/L agar, 0.05 g/L IPTG, and 0.04 g/L Xgal) and incubated overnight at 37° C.

[6] = MB50 ELISA of biotinylated peptides on hair; type: binding, human; conditions: for EC50: biotinylated peptide with C-terminal amidated cysteine; for binding affinity for hair (in words): respective substrate hair
Method: (§4) Hair-binding and skin-binding peptides were synthesized by Syn Pep Inc. (Dublin, Calif.). The peptides were biotinylated by adding a biotinylated lysine residue at the C-terminus of the amino acid binding sequences for detection purposes and an amidated cysteine was added to the C-terminus of the sequence.
(§5) For hair samples, the procedure used was as follows. The setup of the surface specific 96-well system used was the same as that described in Example 5. Briefly, the 96-wells with hair or pig skin surfaces were blocked with blocking buffer (SUPERBLOCK™ from Pierce Chemical Co., Rockford, Ill.) at room temperature for 1 h, followed by six washes with TBST-0.5%, 2 min each, at room temperature. Various concentrations of biotinylated, binding peptide were added to each well, incubated for 15 min at 37° C., and washed six times with TBST-0.5%, 2 min each, at room temperature. Then, streptavidin-horseradish peroxidase (HRP) conjugate (Pierce Chemical Co.) was added to each well (1.0 μg per well), and incubated for 1 h at room temperature. After the incubation, the wells were washed six times with TBST-0.5%, 2 min each at room temperature. Finally, the color development and the measurement were performed as described in Example 5.
(§6) The results were plotted as A450 versus the concentration of peptide using GraphPad Prism 4.0 (GraphPad Software, Inc., San Diego, Calif.).

[7] = Peptide competition ELISA on normal hair; type: binding, human
Method: The purpose of this Example was to test the peptide binding site specificity and affinity of the hair-binding peptide D21 using a competition ELISA. The ELISA assay only detects phage particles that remain bound to the hair surface.
The synthetic hair-binding peptide D21, given as SEQ ID NO:46, was synthesized by SynPep (Dublin, Calif.). As a control, an unrelated synthetic skin-binding peptide, given as SEQ ID NO:61, was added to the system. The experimental conditions were similar to those used in the ELISA method described in Example 5. Briefly, 100 μL of Binding Buffer (1×TBS with 0.1% Tween®20 and 1 mg/mL BSA) and 10^11 pfu of the pure D21 phage particles were added to each well of the 96-well filter plate, which contained a sample of normal hair. The synthetic peptide (100 μg) was added to each well (corresponding to concentration of 0.8 mM). The reactions were carried out at room temperature for 1 h with gentle shaking, followed by five washes with TBST-0.5%. The remaining steps were identical to the those used in the ELISA method described in Example 5. Each individual ELISA test was performed in triplicate; the values in Table 11 are the means of the triplicate determinations.

[8] = MB50 ELISA of biotinylated peptides on pig skin; type: binding; conditions: for EC50: Substrate Pig Skin, biotinylated peptide with C-terminal amidated cysteine; for binding affinity for skin (in words): pig skin
Method: as §4, §5
For the measurement of MB50 of the peptide-skin complexes, the following procedure was used. First, the pigskin was treated to block the endogenous biotin in the skin. This was done by adding streptavidin to the blocking buffer. After blocking the pigskin sample, the skin was treated with D-biotin to block the excess streptavidin binding sites. The remaining steps were identical to those used for the hair samples.
as §6

Row | Substance | Hair A450 [1] | Pig Skin A450 [2] | Phage Titer [5] | also measured
1 | AKTHKHPAPSYS (Hair-binding peptide) [Clone C13] | 0.375 | 0.024 |  | 
2 | Conditioner: SEQ ID NO:46 covalently linked to behenyl alcohol; tested at 0.25% with 1.5% lecithin in water (RTNAADHPAAVT; also: covalently linked to behenyl alcohol, site not given here) |  |  |  | Friction Force Ff, Low Load, Mean [3]: 0.304 mg; Friction Force Ff, High Load, Mean ([4]; mean of fibers): 0.055 g; Friction Force Ff, High Load ([4]; single fibers 1-4): 0.041 g and 0.057 g and 0.070 g and 0.051 g
3 | DLHTVYH [Clone A] |  |  | 7.50 × 10^4 | 
4 | EQISGSLVAAPW (Hair-binding peptide) [Clone A5] | 0.431 | 0.256 |  | 
5 | GPHDTSSGGVRPNLHHTSKKEKRENRKVPFYSHSVTSRGNV (Hair-binding peptide) [Clone D5] | 0.652 | 0.104 | 1.67 × 10^8 | 
6 | HIKPPTR [Clone B] |  |  | 1.21 × 10^5 | 
7 | HLTVPWRGGGSAVPFYSHSQITLPNH (Hair-binding peptide) [Clone F] |  |  | 1.11 × 10^6 | 
8 | HPMSAPR (Hair-binding peptide) [Clone I] |  |  | 1.17 × 10^6 | 
9 | HPVWPAI [Clone D] |  |  | 8.20 × 10^4 | 
10 | KHGPDLLRSAPR (Control peptide) [Clone G-F9, reference compound] | 0.074 | −0.137 |  | 
11 | KHPTYRQ [Clone H] |  |  | 1.30 × 10^6 | 
12 | LGIPQNL [Clone D39] | 0.685 | 0.086 |  | 
13 | LPRIANTWSPS [Clone F35] |  |  |  | EC50 ([6]; Substrate Bleached Hair): 3000 nM; binding affinity for hair (in words) [6]: high
14 | MHAHSIA [Clone A36] | 0.585 | 0.173 |  | 
15 | MPKYYLQ [Clone J] |  |  | 1.24 × 10^6 | 
16 | MPLYYLQ [Clone E] |  |  | 1.70 × 10^5 | 
17 | NSPGYQADSVAIG (Hair-binding peptide) [Clone D30] | 0.414 | 0.287 |  | 
18 | RTNAADHPAAVT [Clone D21] | 1.051 | 0.04 |  | selectivity for hair compared to pig skin ([1]; phage ELISA hair vs pig skin): highest selectivity for hair; binding affinity for hair (in words) ([1]; phage ELISA, versus control G-F9): very strong affinity for hair; affinity for pig skin (in words) ([2]; phage ELISA): very low affinity for pig skin; A450 ([7]; 10^11 pfu D21 phage on normal hair, synthetic peptide 100 μg per well (0.8 mM), mean of triplicate): 1.878; competition with phage clone D21 for hair binding sites (in words) ([7]; synthetic peptide 0.8 mM): does compete with the phage clone D21 for the same binding sites on the hair surface; EC50 ([6]; Substrate Normal Hair): 2000 nM; binding affinity for hair (in words) [6]: high; EC50 [8]: 40000 nM; binding affinity for skin (in words) [8]: relatively low
19 | SLNWVTIPGPKI (Hair-binding peptide) [Clone C10] | 0.542 | 0.032 |  | 
20 | TAATTSP [Clone B1] | 0.42 | 0.127 |  | 
21 | TDMQAPTKSYSN (Hair-binding peptide) [Clone C5] | 0.548 | 0.047 |  | 
22 | TPALDGLRQPLR (Hair-binding peptide) [Clone C18] | 0.34 | 0.132 |  | 
23 | TPFHSPENAPGS [SEQ ID NO: 61] |  |  |  | EC50 [8]: 700 nM; binding affinity for skin (in words) [8]: high
24 | TPPELLHGDPRS [Clone I-B5] |  |  |  | EC50 ([6]; Substrate Normal and Bleached Hair): 300 nM; binding affinity for hair (in words) [6]: high; EC50 [8]: > 100000 nM; binding affinity for skin (in words) [8]: relatively low
